In ChEMBL document CHEMBL4043286, “Exploiting the S4-S5 Specificity of Human Neutrophil Proteinase 3 to Improve the Potency of Peptidyl Di(chlorophenyl)-phosphonate Ester Inhibitors: A Kinetic and Molecular Modeling Analysis” (J Med Chem, 2018) one finds inhibition data, which are given here for one molecule.

The assay deals with T1, Neutrophil elastase (Homo sapiens) (UniProt P08246).
T1 sequence (whole entry): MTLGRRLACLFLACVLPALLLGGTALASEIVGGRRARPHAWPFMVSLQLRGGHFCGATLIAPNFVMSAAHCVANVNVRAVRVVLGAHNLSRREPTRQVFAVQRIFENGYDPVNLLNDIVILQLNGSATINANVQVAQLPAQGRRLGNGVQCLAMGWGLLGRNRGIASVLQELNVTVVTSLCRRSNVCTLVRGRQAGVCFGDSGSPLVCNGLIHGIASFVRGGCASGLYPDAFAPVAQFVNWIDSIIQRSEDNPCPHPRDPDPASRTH
As to the kind of experiment: Inhibition of NE in cystic fibrosis patient sputum supernatant at 5 to 10 nM using ABZ-APEEIMRRQ-EDDnp as substrate after 20 mins by spectrophotometric method.

Active and inactive are the calls of the source. No cut-off for these calls is given here.

In the case of `CCCC(NC(=O)[C@H](CC(=O)O)NC(=O)[C@H](Cc1ccc(O)cc1)NC(=O)[C@@H](NC(=O)CCCC[C@@H]1SC[C@@H]2NC(=O)N[C@@H]21)C(C)C)P(=O)(Oc1ccc(Cl)cc1)Oc1ccc(Cl)cc1` (stereo partly specified), the inhibition result was “inactive”.
